Source: patent US8338472B2, “Hexahydrocyclopentyl[F]indazole carboxamides and derivatives thereof as selective glucocorticoid receptor modulators” (Merck Sharp & Dohme Corp., priority 2008, dated 2012)
Where two headings read alike, the source gives them in different places.

Columns and labels:
[1] = biological target: T1, glucocorticoid receptor (GR) (Homo sapiens, UniProt P04150); test: Ligand binding assay (GR BIND), 3H-dexamethasone displacement in MDA-MB-453 cell lysate; conditions: GR BIND Ki
T1 sequence (P04150 1-777): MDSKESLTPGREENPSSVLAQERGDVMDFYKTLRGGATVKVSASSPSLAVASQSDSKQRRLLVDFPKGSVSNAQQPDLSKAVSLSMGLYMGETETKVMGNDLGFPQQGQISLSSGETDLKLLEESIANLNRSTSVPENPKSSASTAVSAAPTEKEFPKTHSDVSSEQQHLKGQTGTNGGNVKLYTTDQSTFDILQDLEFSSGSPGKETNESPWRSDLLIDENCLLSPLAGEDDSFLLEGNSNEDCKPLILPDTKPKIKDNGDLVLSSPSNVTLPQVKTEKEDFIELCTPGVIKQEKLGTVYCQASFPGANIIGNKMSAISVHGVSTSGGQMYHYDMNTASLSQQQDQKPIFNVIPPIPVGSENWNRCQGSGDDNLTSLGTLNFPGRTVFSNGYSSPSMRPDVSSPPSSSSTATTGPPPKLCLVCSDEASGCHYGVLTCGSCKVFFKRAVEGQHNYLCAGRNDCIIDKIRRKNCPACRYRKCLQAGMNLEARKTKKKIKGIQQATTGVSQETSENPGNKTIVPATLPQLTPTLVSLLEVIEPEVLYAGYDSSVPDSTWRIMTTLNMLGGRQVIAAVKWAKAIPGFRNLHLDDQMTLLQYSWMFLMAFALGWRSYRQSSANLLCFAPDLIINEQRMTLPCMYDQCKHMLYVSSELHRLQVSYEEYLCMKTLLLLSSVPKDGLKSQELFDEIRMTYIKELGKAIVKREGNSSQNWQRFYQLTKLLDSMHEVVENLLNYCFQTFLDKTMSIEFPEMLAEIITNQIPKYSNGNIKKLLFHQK
Procedure: Binding Buffer: TEGM (10 mM Tris-HCl, 1 mM EDTA, 10% glycerol, 1 mM beta-mecaptoethanol, 10 mM Sodium Molybdate, pH 7.2)
50% HAP Slurry: Calbiochem Hydroxylapatite, Fast Flow, in 10 mM Tris, pH 8.0 and 1 mM EDTA.
Wash Buffer: 40 mM Tris, pH7.5, 100 mM KCl, 1 mM EDTA and 1 mM EGTA.
Dexmethasone-methyl-^3H, (DEX*); (Amersham cat# TRK645)
Dexamethasone(DEX) (Sigma, cat# D1756):
The cell pellet is washed twice with TEGM (10 mM Tris-HCl, 1 mM EDTA, 10% glycerol, 1 mM beta-mercaptoethanol, 10 mM Sodium Molybdate, pH 7.2). After the final wash, the cells are resuspended in TEGM at a concentration of 10^7 cells/mL. The cell suspension is snap frozen in liquid nitrogen or ethanol/dry ice bath and transferred to −80° C. freezer on dry ice. Before setting up the binding assay, the frozen samples are left on ice-water to just thaw (˜1 hr). Then the samples are centrifuged at 12,500 g to 20,000 g for 30 min at 4° C. The supernatant is used to set-up assay right away. If using 50 μL of supernatant, the test compound can be prepared in 50 μL of the TEGM buffer.
Procedure for Multiple Compound Screening
1×TEGM buffer is prepared, and the isotope-containing assay mixture is prepared in the following order: EtOH (2% final concentration in reaction), ^3H-DEX (Amersham Biosciences) and 1×TEGM. [e.g. For 100 samples, 200 μL (100×2) of EtOH+4.25 μL of 1:10 ^3H-Dex stock+2300 μL (100×23) 1×TEGM]. The compound is serially diluted, e.g., if starting final conc. is 1 μM, and the compound is in 25 μL of solution, for duplicate samples, 75 μL of 4×1 μM solution is made and 3 μL of 100 μM is added to 72 μL of buffer, and 1:5 serial dilution.
25 μL of ^3H-DEX (6 nM) trace and 25 μL compound solution are first mixed together, followed by addition of 50 μL receptor solution. The reaction is gently mixed, spun briefly at about 200 rpm and incubated at 4° C. overnight. 100 μL of 50% HAP slurry is prepared and added to the incubated reaction which is then vortexed and incubated on ice for 5 to 10 minutes. The reaction mixture is vortexed twice more to resuspend HAP while incubating reaction. The samples in 96-well format are then washed in wash buffer using The FilterMate™ Universal Harvester plate washer (Packard). The washing process transfers HAP pellet containing ligand-bound expressed receptor to Unifilter-96 GF/B filter plate (Packard). The HAP pellet on the filter plate is incubated with 50 μL of MICROSCINT (Packard) scintillint for 30 minutes before being counted on the TopCount microscintillation counter (Packard). IC50s are calculated using DEX as a reference.

human GR = biological target: T2, human GR (Homo sapiens, UniProt P04150); test: Transrepression Assay (GITAR), TNFα-β-lactamase reporter gene in U937 cells; assay type: cell-based; conditions: for GITAR Greater than by GRAMMER % SEP: GITAR Emax minus GRAMMER Emax; for EC50: inflection point, U937 cells, read-out: Transrepression U937 Cells GITAR IP
T2 construct: U937 cells contain an endogenous glucocorticoid receptor (GR); endogenous in cells; host or cells: U937 cells stably transfected with the TNF-alpha promoter/beta-lactamase reporter
T2 sequence (P04150 1-777): T1 sequence (P04150 1-777)
Text: Transrepression Assay (GITAR)
This assay assesses the ability of test compounds to control transcription from the TNFα-β-lactamase reporter gene in U937 cells, a human myelomonocytic leukemia cell line that naturally expresses the human GR. The assay measures compound dependent-repression of the TNFa promoter linked to a reporter gene.
The human U937 cells that had been stablely transfected with the TNF-α promoter driving β-lactamase are used for this assay. U937 cells contain an endogenous glucocorticoid receptor (GR). Cells are maintained in RPMI 1640 Growth medium (Gibco Cat#11875-093) containing 25 mM HEPES, 10% FBS, 2 mM L-Glutamine, 1 mM Sodium pyruvate, 25 μg/ml Gentamicin (Gibco Cat#15710-064), 1:1000 2-Mercaptoethanol (Gibco Cat#21985-023) and 0.8 mg/ml G418 (Gibco Cat#10131-027). The density of the cells in the flask needs to be about 1×10^6−3×10^6/ml at the time of harvest. Usually, the cells are split to 1.2˜1.4×10^5/ml (1:10) 3 days prior to the assay. 50,000 cells/well are plated in 96 well black-walled plates the day of assay. Test compounds are added 10 pt/well, and cells are incubated at 37° C. for 30-45 min. For assaying compounds, first dilute 1:10 in DMSO to make 1 mM, then further dilute 1:100 in medium to make 10× stock prior to adding to the cells. Add 50 ng/ml PMA (Sigma, cat# P8139) 10 μL/well to a final concentration 5 ng/ml, and 1 μg/ml LPS (Sigma, cat# L4130) 10 μL/well to a final concentration 100 ng/ml. Incubate cells at 37° C. overnight for ˜18 hr. PMA is stored frozen as 100 μg/ml stock in DMSO. Dilute 1:10 in DMSO for a working stock of 10 μg/ml and store at −20C. For assaying, dilute the […] working stock 1:200 in medium to make a 10× solution (50 ng/ml). Store frozen LPS at 1 mg/ml in PBS, dilute 1:1000 in medium to make 10× (1 μg/ml) for the assay. Add 6× loading buffer (CCF2−AM) 20 μL/well, and incubate at room temperature for 70-90 min. […] The activity repressed by 100 nM dexamethasone alone is set as 100% activity.

Glucocorticoid Receptor = biological target: T3, Glucocorticoid Receptor (Homo sapiens, UniProt P04150); test: Trans-Activation Modulation of Glucocorticoid Receptor (GRAMMER), MMTV-LUC reporter gene in A549 cells; assay type: cell-based; conditions: Table 1; for Emax: A549, A549 cells, Emax relative to 300 nM dexamethasone, read-out: Transactivation A549 Cells GRAMMER Emax; for EC50: inflection point, A549 cells, read-out: Transactivation A549 Cells GRAMMER IP
T3 construct: These cells express large amount of the GR and are very responsive to GC treatment; endogenous in cells; host or cells: A549 cells transiently transfected with the MMTV-LUC reporter
T3 sequence (P04150 1-777): T1 sequence (P04150 1-777)
Text: Trans-Activation Modulation of Glucocorticoid Receptor (GRAMMER)
This assay assesses the ability of test compounds to control transcription from the MMTV-LUC reporter gene in lung adenocarcinoma A549 cells or MDA-MB-453 cells, a human breast cancer cell line that naturally expresses the human GR. The assay measures induction of a modified MMTV LTR/promoter linked to the LUC reporter gene.
The routine transient assay consists of plating 7,000-25,000 cells/well of a white, clear-bottom 96-well plate. Alternatively, 384-well plates can be used at a cell concentration of 10,000/well. The media that the cells are plated in is “exponential growth medium” which consists of phenol red-free RPMI1640 containing 10% FBS, 4 mM L-glutamine, 20 mM HEPES, 10 ug/mL human insulin, and 20 ug/mL gentamicin. Incubator conditions are 37° C. and 5% CO2. The transfection is done in batch mode. The cells are trypsinized and counted to the right cell number in the proper amount of fresh media. It is then gently mixed with the FuGene6/DNA mix and plated onto the 96 or 384-well plate, all the wells receive 100 uL or 40 uL, respectively, of medium+lipid/DNA complex then incubated 37° C. overnight. The transfection cocktail consists of serum-free OptiMEM, FuGene6 reagent and DNA. The manufacturer's (Roche Biochemical) protocol for cocktail setup is as follows: The lipid to DNA ratio is approximately 2.5:1 and the incubation time is 20 min at room temperature. Sixteen to 24 hours after transfection, the cells are treated with dexamethasone to a final concentration of 10 nM as well as the compound of interest, such that final DMSO (vehicle) concentration is equal to or less than 1%. Each plate also contains samples that are treated with 10 nM dexamethasone alone, which is used as the 100% activity control. The cells are exposed to the compounds for 24 hours. After 24 hours, the cells are lysed by a Promega cell culture lysis buffer for approximately 30 min and then the luciferase activity in the extracts is assayed in the 96-well format luminometer. In 384-well format, Steady-Glo (Promega) or Steady-Lite (PerkinElmer) can be used by adding an equal volume of reagent to the media present in each well. Activity induced by 10 nM dexamethasone alone is set at 100% activity. Antagonist activity is calculated by determining the decrease in dexamethasone-induced activity in response to compound treatment relative to samples that were treated with dexamethasone alone. […] This transactivation assay can be performed in an agonist and antagonist mode to identify these different activities.
Activity of test compounds is calculated as the Emax relative to the activity obtained with 300 nM dexamethasone. Activity of test compounds is calculated as the Emax relative to the activity obtained with 300 nM DEX. […] The action of compounds is also tested in an antagonist mode (Anti-GRAMMER) in which the cells are treated with medium containing an agonist such as 10 nM DEX and the ability to agents to inhibit the activation by an agonist is measured.

[2] = U-937, U937 cells, activity repressed by 100 nM dexamethasone = 100%, Table 1, read-out: Transrepression U937 Cells GITAR Emax
[3] = U-937, text statement, 100 nM dexamethasone = 100%, read-out: maximal activity in the transrepression assay (GITAR)

| Compound | Ki ([1]; compounds in the art (WO03/086294)) | Ki ([1]; Table 1) | GITAR Greater than by GRAMMER % SEP (human GR; Table 1) | Emax (human GR; [2]) | Emax (human GR; [3]) | EC50 (human GR; Table 1) | Emax (Glucocorticoid Receptor) | EC50 (Glucocorticoid Receptor) |
| --- | --- | --- | --- | --- | --- | --- | --- | --- |
| CCCN(CCC)C(=O)[C@H]1CCC2=Cc3c(cnn3-c3ccc(F)cc3)C[C@@]21C [Compound 1, (4αR,5S)-1-(4-Fluorophenyl)-4α-methyl-N,N-dipropyl-1,4,4α,5,6,7-hexahydrocyclopenta[f]indazole-5-carboxamide] |  | 1.7 nM | 22.2% | 67.5% | > 5% | 328 nM | 45.3% | 177 nM |
| C[C@]12Cc3cnn(-c4ccc(F)cc4)c3C=C1CC[C@@H]2C(=O)NC(Cc1ccccc1)c1ccccc1 (stereo partly drawn) [Compound 2, (4αR,5S)-N-(1,2-diphenylethyl)-1-(4-fluorophenyl)-4α-methyl-1,4,4α,5,6,7-hexahydrocyclopenta[f]indazole-5-carboxamide] |  | 12.7 nM | 24.5% | 27.6% | > 5% | 3540 nM | 3.1% | 1120 nM |
| CCCN(CC)C(=O)[C@H]1CCC2=Cc3c(cnn3-c3ccc(F)cc3)C[C@@]21C [Compound 4, (4αR,5S)-N-ethyl-1-(4-fluorophenyl)-4α-methyl-N-propyl-1,4,4α,5,6,7-hexahydrocyclopenta[f]indazole-5-carboxamide] |  | 2.5 nM | 2.3% | 21.5% | > 5% | 1000 nM | 19.2% | 909 nM |
| CCCN(CC1CC1)C(=O)[C@H]1CCC2=Cc3c(cnn3-c3ccc(F)cc3)C[C@@]21C [Compound 5, (4αR,5S)-N-(cyclopropylmethyl)-1-(4-fluorophenyl)-4α-methyl-N-propyl-1,4,4α,5,6,7-hexahydrocyclopenta[f]indazole-5-carboxamide] |  | 0.9 nM | 24.2% | 59.6% | > 5% | 674 nM | 35.4% | 358 nM |
| CC(C)CCN(CCC(C)C)C(=O)[C@H]1CCC2=Cc3c(cnn3-c3ccc(F)cc3)C[C@@]21C [Compound 8, (4αR,5S)-1-(4-fluorophenyl)-4α-methyl-N,N-bis(3-methylbutyl)-1,4,4α,5,6,7-hexahydrocyclopenta[f]indazole-5-carboxamide] |  | 1 nM | 12.4% | 18% | > 5% | 812 nM | 5.6% | 728 nM |
| C[C@]12Cc3cnn(-c4ccc(F)cc4)c3C=C1CC[C@@H]2C(=O)N1CCCCC1CCc1ccccc1 (stereo partly drawn) [Compound 18, (4αR,5S)-1-(4-fluorophenyl)-4α-methyl-5-{[2-(2-phenylethyl)piperidin-1-yl]carbonyl}-1,4,4α,5,6,7-hexahydrocyclopenta[f]indazole] |  |  | 6.3% | 10.1% | > 5% |  | 3.8% |  |

Next, values leading:

| Ki ([1]; compounds in the art (WO03/086294)) | Ki ([1]; Table 1) | GITAR Greater than by GRAMMER % SEP (human GR; Table 1) | Emax (human GR; [2]) | Emax (human GR; [3]) | EC50 (human GR; Table 1) | Emax (Glucocorticoid Receptor) | EC50 (Glucocorticoid Receptor) | Compound |
| --- | --- | --- | --- | --- | --- | --- | --- | --- |
| 2420 nM |  |  |  |  |  |  |  | C[C@]12Cc3cnn(-c4ccc(F)cc4)c3C=C1CC[C@@H]2C(=O)Nc1ccccc1 (single isomer, unassigned) [reference compound] |
|  | 16.2 nM | 16.1% | 17% | > 5% | 5200 nM | 0.9% | 5590 nM | C[C@]12Cc3cnn(-c4ccc(F)cc4)c3C=C1CC[C@@H]2C(=O)NCc1ccc(Cl)cc1Cl [Compound 3, (4αR,5S)-N-(2,4-dichlorobenzyl)-1-(4-fluorophenyl)-4α-methyl-1,4,4α,5,6,7-hexahydrocyclopenta[f]indazole-5-carboxamide] |
|  | 19.4 nM | 11.5% | 12.8% | > 5% | 0.9 nM | 1.3% | 133 nM | C[C@]12Cc3cnn(-c4ccc(F)cc4)c3C=C1CC[C@@H]2C(=O)Nc1ccccc1 [Compound 6, (4αR,5S)-1-(4-fluorophenyl)-4α-methyl-N-phenyl-1,4,4α,5,6,7-hexahydrocyclopenta[f]indazole-5-carboxamide] |
|  | 1.3 nM | 4.8% | 18.2% | > 5% | 586 nM | 13.4% | 1400 nM | C[C@]12Cc3cnn(-c4ccc(F)cc4)c3C=C1CC[C@@H]2C(=O)N(Cc1ccc(Cl)cc1Cl)CC1CC1 [Compound 7, (4αR,5S)-N-(cyclopropylmethyl)-N-(2,4-dichlorobenzyl)-1-(4-fluorophenyl)-4α-methyl-1,4,4α,5,6,7-hexahydrocyclopenta[f]indazole-5-carboxamide] |
